Data: US4670433A, “Oxadiazolyl imidazobenzodiazepine derivatives pharmaceutical compositions thereof, and method of treating therewith” (A/S Ferrosan, priority 1985, dated 1987)

Assays:
benzodiazepine receptors [1] = test: displacement of 3H-Ro 15-1788 from benzodiazepine receptors in vitro (rat cerebral cortical membrane homogenate); details: 50% displacement of specific binding of 3H-Ro 15-1788, 30° C.
Method: (§1) The pharmaceutical potency of the compounds of the present invention is evidenced by determining their capability for displacing radioactively-labelled flunitrazepam and the imidazobenzodiazepine ^3 H-Ro 15-1788 from such benzodiazepine receptors.
(§2) The displacement activity of the compounds of the invention has been determined by determining their IC50 and ED50 values. The IC50 value represents the concentration (nM, 30° C.) which causes a displacement of 50% of the specific binding of ^3 H-Ro 15-1788 in samples comprising a total volume of 1 ml.
The displacement test is performed as follows:
750 μl of rat cerebral cortical membrane homogenate was incubated with 100 μl of 5 nM ^3 H-Ro 15-1788 in water at 30° C. Then 100 μl of a solution of the test compound and 50 μl of Krebs buffer was added. After incubation the binding reaction was terminated by filtration through Whatman GF/B glass fibre filters followed by 2×5 ml wash with ice-cold buffer and the radioactivity was measured by scintillation counting. The IC50 was determined by including at least four concentrations of the test compound and log/probit analysis of the resulting data.

benzodiazepine receptors [2] = test: in vivo displacement of 3H-flunitrazepam from benzodiazepine receptors in living mouse brain; details: dose reducing specific 3H-flunitrazepam binding to 50% of control; mice, usually subcutaneously, 15 min before 3H-flunitrazepam i.v., killed after a further 20 min, forebrain membranes
Method: as §1, §2
The ED50 value represents the dose (mg/kg) of a test substance which causes the specific binding of flunitrazepam to benzodiazepine receptors in a living brain to be reduced to 50% of the control value.
Such an in vivo test is carried out as follows:
Groups of mice are injected with the test substance at different doses and usually subcutaneously. Fifteen minutes later ^3 H-flunitrazepam is given intravenously to the mice and, after a further twenty minutes, the mice are killed. Their forebrain membranes are removed and the radioactivity of these forebrain membranes is measured by scintillation counting. The ED50 value is determined from dose-response curves.

| Structure (SMILES) | IC50 (benzodiazepine receptors [1]) [nM] | in vivo ED50 (benzodiazepine receptors [2]) [mg/kg] |
| --- | --- | --- |
| CCc1noc(-c2ncn3c2CN(C)C(=O)c2c(C)cccc2-3)n1 | 44.8 | 2.2 |
| CCc1noc(-c2ncn3c2C2CCN2C(=O)c2c(C)cccc2-3)n1 (stereo not drawn) | 30 | 0.4 |
| Cc1cccc2c1C(=O)N1CCC1c1c(-c3nc(C4CC4)no3)ncn1-2 (stereo not drawn) | 23 | 0.2 |
| CCc1nc(-c2ncn3c2CN(C)C(=O)c2c-3cccc2C(F)(F)F)no1 | 5.6 | 0.5 |
| COc1ccc2c(c1)C(=O)N(C)Cc1c(-c3nc(C)no3)ncn1-2 | – | 4.0 |
